Laboratory results as given in PubChem BioAssay (NCI).
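A five-concentration, 48-hour dose response in 96-well plates underlies each endpoint, interpolated linearly between surrounding concentrations. The concentration for full growth arrest is given as TGI.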

Key:
Assay in all cases: DTP human tumour cell line panel, 48 h
SNB-75 CNS = tested on: SNB-75 CNS
U251 CNS = tested on: U251 CNS
HOP-92 NSCLC = tested on: HOP-92 NSCLC
OVCAR-4 ovarian = tested on: OVCAR-4 ovarian
SNB-78 CNS = tested on: SNB-78 CNS
EKVX NSCLC = tested on: EKVX NSCLC
A549 NSCLC = tested on: A549 NSCLC
HCT-116 colon = tested on: HCT-116 colon
TK-10 renal = tested on: TK-10 renal
HOP-18 NSCLC = tested on: HOP-18 NSCLC
DMS 114 small cell lung = tested on: DMS 114 small cell lung
MOLT-4 leukemia = tested on: MOLT-4 leukemia
SF-268 CNS = tested on: SF-268 CNS
A498 renal = tested on: A498 renal
HOP-62 NSCLC = tested on: HOP-62 NSCLC
SF-539 CNS = tested on: SF-539 CNS
SR leukemia = tested on: SR leukemia
COLO 205 colon = tested on: COLO 205 colon
SK-MEL-28 melanoma = tested on: SK-MEL-28 melanoma
M14 melanoma = tested on: M14 melanoma
NCI-H460 lung = tested on: NCI-H460 lung
NCI-H522 lung = tested on: NCI-H522 lung
ACHN renal = tested on: ACHN renal
IGROV1 ovarian = tested on: IGROV1 ovarian
UO-31 renal = tested on: UO-31 renal
HCT-15 colon = tested on: HCT-15 colon
SK-MEL-2 melanoma = tested on: SK-MEL-2 melanoma
SF-295 CNS = tested on: SF-295 CNS
KM12 colon = tested on: KM12 colon
HCC-2998 colon = tested on: HCC-2998 colon
SN12C renal = tested on: SN12C renal
XF 498 CNS = tested on: XF 498 CNS
SW-620 colon = tested on: SW-620 colon
DLD-1 colon = tested on: DLD-1 colon
MALME-3M melanoma = tested on: MALME-3M melanoma
LOX IMVI melanoma = tested on: LOX IMVI melanoma
KM20L2 colon = tested on: KM20L2 colon
OVCAR-3 ovarian = tested on: OVCAR-3 ovarian
UACC-257 melanoma = tested on: UACC-257 melanoma
LXFL 529 NSCLC = tested on: LXFL 529 NSCLC
786-0 renal = tested on: 786-0 renal
UACC-62 melanoma = tested on: UACC-62 melanoma
OVCAR-8 ovarian = tested on: OVCAR-8 ovarian
DMS 273 small cell lung = tested on: DMS 273 small cell lung
NCI-H226 lung = tested on: NCI-H226 lung
K-562 leukemia = tested on: K-562 leukemia
SNB-19 CNS = tested on: SNB-19 CNS
HT29 colon = tested on: HT29 colon
HL-60(TB) leukemia = tested on: HL-60(TB) leukemia
CCRF-CEM leukemia = tested on: CCRF-CEM leukemia
M19-MEL melanoma = tested on: M19-MEL melanoma
RXF 393 renal = tested on: RXF 393 renal
NCI-H23 lung = tested on: NCI-H23 lung
RPMI-8226 leukemia = tested on: RPMI-8226 leukemia
SK-OV-3 ovarian = tested on: SK-OV-3 ovarian
RXF-631 renal = tested on: RXF-631 renal
OVCAR-5 ovarian = tested on: OVCAR-5 ovarian

Measured: TGI

CC(=O)c1cccc(N2COC(C)(C)c3nc4ccccc4n3C2)c1
not listed: RXF-631 renal | OVCAR-5 ovarian
> 100 µM: all other assays above

CCN(CC)CSc1nc2ccccc2o1
not listed: SNB-75 CNS | OVCAR-4 ovarian | HOP-18 NSCLC | SF-268 CNS | SF-539 CNS | COLO 205 colon | HCT-15 colon | SK-MEL-2 melanoma | HCC-2998 colon | SN12C renal | XF 498 CNS | SW-620 colon | DLD-1 colon | MALME-3M melanoma | LOX IMVI melanoma | KM20L2 colon | OVCAR-3 ovarian | LXFL 529 NSCLC | 786-0 renal | NCI-H226 lung | K-562 leukemia | RPMI-8226 leukemia
> 100 µM: all other assays above
